Source: article PMC7796031, “Studies of Coumarin Derivatives for Constitutive Androstane Receptor (CAR) Activation” (Molecules, 2020)
Read-outs that look alike come from different tables or passages of the source. One block for each molecule: values may come before it.

Legend:
[1] = molecular target: T1, Constitutive androstane receptor (CAR) (Homo sapiens, UniProt Q14994); test: In vitro CAR activation screening assay (UGT1A1 promoter gtPBREM-pGL4 luciferase reporter in Hep3B-gtPBREM cells); assay type: cell-based; details: for activation at 10 µM: (luminescence of compound − luminescence of scoparone)/luminescence of scoparone × 100%, read-out: CAR Activation Fold
T1 construct: The pGL4-gtPBREM plasmid was transfected into Hep3B cells; endogenous in cells
T1 sequence (Q14994 1-352): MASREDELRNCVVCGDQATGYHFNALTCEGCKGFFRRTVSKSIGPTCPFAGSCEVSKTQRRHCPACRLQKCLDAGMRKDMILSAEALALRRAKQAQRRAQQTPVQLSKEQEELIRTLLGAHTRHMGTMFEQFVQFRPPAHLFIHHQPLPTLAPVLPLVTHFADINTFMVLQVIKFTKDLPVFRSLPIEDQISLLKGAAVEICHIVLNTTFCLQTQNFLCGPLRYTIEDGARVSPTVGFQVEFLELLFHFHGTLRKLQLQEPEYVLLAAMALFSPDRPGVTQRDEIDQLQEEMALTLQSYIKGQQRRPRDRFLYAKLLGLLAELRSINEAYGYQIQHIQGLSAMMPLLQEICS
Description: Until now, there is no commercially available high throughput screening method for CAR activation. Traditionally, CAR activation can be detected in western blots by its downstream signals such as UGT1A1, MRP2 or CYP2B6. […] However, this method was slow and pricy. In order to rapidly screen all the compounds for CAR activation at less cost, an in vitro CAR activation screening assay was developed: DNA was extracted from Hep3B cells and UGT1A1 promoter was obtained using PCR amplification. Ligation between UGT1A1 promoter and pGL4 vector was performed and the plasmid was amplified via E. coli replication. The desired plasmid was extracted from E. coli and transfected into Hep3B. The desired colony bearing UGT1A1 promoter-pGL4 plasmid was selected by neomycin. CAR activation was measured by adding tested compounds to Hep3B for several hours and luminescence was measured. Higher activation will get higher luminescence readout. This assay system was validated with two different CAR agonists: CITCO (direct agonist) and scoparone (an indirect agonist). […] Different concentration of scoparone at 1, 5, 10 and 20 μM had been tested either for luciferase assay or downstream UGT1A1 and MRP2 expression (data not shown) and 10 μM was selected to be the best condition for the following work.
After successfully establishing the in vitro assay, all of the coumarin compounds were subjected to the screening (at 10 μM) and their SAR was discussed. Although the reporter system can successfully identify CAR-activating compounds under 8 h and display better efficiency and sensitivity compared with western blots, it only presented a medium luciferase response. According to previous studies, CITCO was reported to only moderately enhance human CAR (less than 2-fold), compared with the enhance provided by TCPOBOP for murine CAR (5- to 10-fold) in luciferase reporter assays. […] Another possibility for the medium response in our reporter system might be the contribution of the whole gtPBREM element which might include response-suppressive elements that was used and the single nucleotide variation of DR3 element which was reported to slightly reduce the original UGT1A1 activity.
The genomic DNA was isolated from Hep3B cells using Wizard® Genomic DNA Purification Kit (Promega, Fitchburg, WI, USA). The promoter region of UGT1A1 gene, gtPBREM element, was amplified by AccuPrime^TM Taq DNA Polymerase High Fidelity Kit (Invitrogen, MA, USA). The sequence of the amplified element was confirmed by DNA sequencing company and cloned into pGL4 luciferase reporter vector. The pGL4-gtPBREM plasmid was transfected into Hep3B cells. The stable pGL4-gtPBREM transfected Hep3B cells, Hep3B-gtPBREM cells, were established after G418 selection. The luciferase activity represented of CAR activation ability was measured using individual established clone. Further, CAR-shRNA was obtained from the Genomic Research Center and transfected into Hep3B-gtPBREM cells. The transient transfected shCAR-Hep3B-gtPBREM cells were used for further luciferase assays.
The Hep3B-gtPBREM cells and shCAR-Hep3B-gtPBREM cells (1.5 × 10^5 cells/well) were seeded into 12-well plates for overnight then pre-determined concentration compounds were added for desired time. After treatment, transfected cells were washed twice in PBS, lysated with 1× passive lysis buffer and luciferase intensity of equal amount of cell lysate was measured by a Synergy HT Multi-Mode Microplate Reader (BioTek, Winooski, VT, USA).

MRP2 = test: Protein expression of MRP2 (western blot); assay type: cell-based, human; details: Figure 2; after scoparone or CITCO treatment
Protocol: Figure 7 The protein expressions of MRP2 after 6,7-diprenoxycoumarin (50) treatment. Hep3B cell (1 × 10^6) were treated with 50 (5, 10, 20 and 40 μM) for 24 h. Treated cell lysates were prepared as described in the Methods section and the expression of MRP2 was analyzed by western blot.
(§1) 1 × 10^6 cells were seeded in a 10 cm plate, incubated at 37 °C for overnight and treated with various concentrations of compounds for the indicated times. After incubation, the culture medium was removed and washed twice with 2 mL ice-cold 1× PBS. Three hundred μL of protein lysis buffer (150 mM NaCl, 50 mM Tris-HCl (pH 7.4), 1% SDS, 1% Triton X-100, 1 mM PMSF) was added into each plate, scraped with a rubber policeman, collected into a premarked microtube and the incubated in ice for 1 h, sonicated by Ultrasonic Cell Disruptor for three time at 5 s each. The cell lysated was cleared by centrifugation at 12,000× g for 15 min at 4 °C. Supernatants were transferred into a fresh marked microtube and stored at −20 °C for future use.
(§2) Protein concentration of each sample was determined using a BCA Protein Assay Kit (Pirece®, Thermo Scientific). Different percentages of SDS-PAGE gels were prepared according to the molecular size of proteins of interest. After complete polymerization of stacking gels, each sample with equal amount of total protein was separated in polyacrylamide gels (stacking gel: 50 v, 60 min; separating gel: 100 v, 60 min). After separating, wet-transfer method was utilized to transfer proteins onto the PVDF membrane. The gels were assembled in the transfer sandwich and put in a transfer tank filled with transfer buffer (25 mM glycine, 0.15% ethanolamine, 20% methanol). The electro-transfer was performed at the voltage of 100 volt for 80 min at 4 °C. After transfer, PVDF-membrane was blocked with 5% BSA in 1× TBS-Tween at room temperature for 1 h. Membrane was washed with 10 mL 1× TBS-Tween three times and incubated with primary antibodies overnight at 4 °C with gentle agitation. […] The emitted fluorescence from the membrane was caught on a LAS-4000 biomolecule imager (FUJI.).

UGT1A1 = test: Protein expression of UGT1A1 (western blot); assay type: cell-based, human; details: Figure 2; after scoparone or CITCO treatment
Protocol: as §1
as §2, with “agitation. After primary antibody was removed, the membrane was washed three times with 10 mL 1× TBS-Tween for 10 min at room temperature with constant shaking.” for “agitation.”

human CAR = test system: human CAR; parameters: method as in PMID 10757780, PMID 12611900; details: cited from earlier work
[2] = test system: phosphoenopyruvate carboxykinse (PEPCK) mRNA expression; test: PEPCK mRNA expression induced by dexamethasone and 8-bromo-cAMP in H4IIE cells; assay type: cell-based, rat; details: dexamethasone (500 nM) + 8-bromo-cAMP
Protocol: S21 Effects of scoparone, 50 (PLH), and 6 on phosphoenopyruvate carboxykinse (PEPCK) mRNA expression induced by dexamethasone and 8-bromo-cAMP.
A quantified result of dexamethasone (500 nM) and 8-bromo-cAMP (100µM) induced PEPCK mRNA expression in the presence or absence of scoparone, 50 (PLH) and 6 at 0.78 µM was shown. Insulin (10 nM) was served as an experimental control. Quantified data was presented as mean ± S.E.M. (n = 4). **P < 0.01 and ***P < 0.001 when compared with induction control (None).
PEPCK mRNA could be induced by dexamethasone and 8-bromo-cAMP after 3hr. The presence of insulin […]
Scoparone, at 0.78 µM, can suppress PEPCK
In contrast, both 50 (PLH) and 6 could also suppress PEPCK
Cell culture: The rat H4IIE cells were cultured in Dulbecco’s Modified Eagle’sMedium (DMEM) containing 1 g/L glucose, 5% (v/v) fetal calf serum (FBS) and 1% (v/v) antibiotics (100 U/mL penicillin and 0.1 g/L streptomycin). Cultured cells were maintained at 37 ◦C in an atmosphere of 5% CO2 and 95% air.
The measurement of PEPCK gene expression: H4IIE cells were seeded into 6 cm dish and allowed for the attachment. After serum starvation overnight, cells were treated with various conditions described in the figure legend. After treatment, total RNA of each treatment was extracted using TRI-reagent according to the manufacturer’s instructions. The pelleted RNA was dissolved in distilled water, quantified with NanoDrop™ 1000 Spectrophotometer (Thermo Fisher Scientific, USA) and stored at −70 ◦C. Total RNA (1µg) was reverse transcribed to generate templates. 50 ng of cDNA was employed for further PCR. The sequences of […]
primers for β-actin: 5’-[…]- 3’ and 5’-[…]-3’ and […]
(1 picture or pasted object on this page, not shown here)

CAR protein = test: Immunofluorescence staining for CAR translocation in Hep3B cells; assay type: cell-based, human; details: pre-treated with 10 nM okadaic acid, then 50 (10 μM) 2 h
Protocol: Figure 3 Image of immunofluorescence staining for CAR translocation in Hep3B cells after 6,7-diprenoxycoumarin (50) treatment (A) and scoparone treatment (C). Hep3B cells were treated with 50 (10 μM) for 2 h. The negative control group was pre-treated with 10 nM okadaic acid (OA). The blue and green fluorescence stands for signals of nuclei and CAR protein, respectively. The protein expression of nuclear CAR after 6,7-diprenoxycoumarin (50) treatment for 2 h (B).
Hep3B cells (4 × 10^5) were grown on coverslips for overnight then washed twice with 1× PBS and fixed with 4% paraformaldehyde in 1× PBS for 30 min at room temperature. Cells were then permeabilized with 1× PBS containing 0.1% (v/v) Triton X-100 for 10–15 min and blocked in 1× PBS containing 5% BSA for 1 h at room temperature. CAR antibody (1:200 dilutions) was added and reacted at room temperature for 2 h in 1× PBS containing 5% BSA. FITC-conjugated goat anti-rabbit IgG antibody was added for another 1 h at room temperature. Coverslips were mounted and images were acquired under a fluorescence microscope.

[3] = MTT cell cytotoxicity assay of coumarin derivatives; assay type: cell-based; details: human, Hep 3B cells, 72 h treatment
Protocol: The colorimetric assay for cellular growth and survivals described by Hansen et al. with modifications. The MTT (3-(4,5-cimethylthiazol-2yl)-2,5-diphenyltetrazolium bromide, Sigma-Aldrich Inc., Germany) assay was utilized to determine the IC50 value of each compound. Cells (5000 cells/well) were seeded into 96-well plates for 24 h and subsequently the cells were treated with vehicle or tested compounds at pre-determined concentration. After 72 h treatment, MTT solution was added to the final concentration of 0.5 mg/mL and continue cultured for 2 h at 37 °C. Afterward, the cells were lysed with lysis buffer (40% DMF and 20% SDS in H2O) overnight at 37 °C to lysate the cells. The absorbance at 570 nm was then detected by a microplate reader and the IC50 value was calculated.

murine CAR = test system: murine CAR; parameters: method as in PMID 10757780, PMID 12611900; details: cited from earlier work

Molecule: Clc1ccc(-c2nc3sccn3c2/C=N/OCc2ccc(Cl)c(Cl)c2)cc1 [CITCO, 6-(4-Chlorophenyl) imidazo [2,1-b] [1, 3] thiazole-5-carbaldehyde O-(3,4-dichlorobenzyl) oxime, reference compound]
elevation of luciferase activity ([1]; assay validation, direct agonist): about 50%
protein expression of MRP2 (CAR downstream gene) (MRP2): upregulated
protein expression of UGT1A (CAR downstream gene) (UGT1A1): upregulated
enhancement of human CAR in luciferase reporter assays (human CAR): less than 2 fold

activation at 10 µM ([1]; Table 1): -5%
Molecule: CC(C)=CCOc1cccc2oc(=O)ccc12 [Compound 6]
suppression of PEPCK mRNA induction ([2]; test compounds as printed): less potent

Molecule: C=C1[C@@H](O)[C@@H]2O[C@]3(CC[C@H](/C=C/[C@@H](C)[C@@H]4CC(C)=C[C@@]5(O[C@H](C[C@@](C)(O)C(=O)O)CC[C@H]5O)O4)O3)CC[C@H]2O[C@@H]1[C@@H](O)C[C@H](C)[C@H]1O[C@@]2(CCCCO2)CC[C@H]1C [okadaic acid, reference compound]
CAR translocation activity of 50 after pre-treatment (CAR protein): inhibited

Molecule: CCCCCOc1cc2ccc(=O)oc2cc1OCCCCC [Compound 47, 6,7-Dipentoxycoumarin]
activation at 10 µM ([1]; Table 2): -10%
IC50 at 72 h [3]: 31 µM
melting point: 57 to 59 °C

Molecule: Clc1cnc(Oc2ccc(Oc3ncc(Cl)cc3Cl)cc2)c(Cl)c1 [TCPOBOP]
enhancement of murine CAR in luciferase reporter assays (murine CAR): 5- to 10 fold

Molecule: insulin: Insulin (10 nM) served as an experimental control in the PEPCK assay
suppression of PEPCK mRNA induction ([2]; 10 nM, experimental control): suppress such induction
